# Assays:
# Assay type in all cases: cell-based, human
# [1] = tested on: MYOD1 mRNA in HEK293T cells; experiment: qPCR of MYOD1 mRNA levels; conditions: MYOD1 sgRNAs; ABA vs DMSO
# Description: (§1) To determine if the new method can be used to modify H3K27Ac at other gene loci, sgRNAs were designed that target the promoter region of other genes with low expression levels in HEK293T cells, including GRM2, HBA and MYOD1 (Table 1).
# (§2) Human embryonic kidney cell HEK293T (American Type Culture Collection, Manassas, Va.) was cultured in Dulbecco's modified Eagle's medium (DMEM) (Gibco) with 10% FBS (Atlanta Biologicals), 1× GlutaMax (Gibco, Thermo Fisher Scientific, Inc., Waltham, Mass.), and 1× penicillin/streptomycin (Pen/Strep; Gibco, Thermo Fisher Scientific, Inc., Waltham, Mass.). Cells (100,000/ml) were plated in 24-well or 10-cm cell culture plate the day before transfection. […]
# (§3) Total RNA was extracted using the EZNA Total RNA Kit I (Omega Bio-tek, Inc., Norcross, Ga.). qPCR reactions were performed on cDNA prepared from 1,000 ng of total cellular RNA using the High-Capacity cDNA Reverse Transcription Kit (Applied Biosystems Co., Thermo Fisher Scientific, Inc., Foster City, Calif.). […] Data were analyzed using the SDS software, version 2.4 (Applied Biosystems Co., Thermo Fisher Scientific, Inc., Foster City, Calif.), by the ΔΔCt method: the Ct values of target gene were normalized to Ct values of GAPDH, the folds of target gene expression changes were normalized to experimental controls. Analyzed data are reported as the mean±s.e.m. for biological replicates. […]
# [2] = tested on: HBA mRNA in HEK293T cells; experiment: qPCR of HBA mRNA levels; conditions: HBA sgRNAs; ABA vs DMSO
# Description: as §1, §2, §3
# [3] = tested on: HBA locus in HEK293T cells; experiment: ChIP-qPCR of FLAG-ABI-P300 and H3K27Ac at the HBA locus; conditions: HBA sgRNAs; ABA treatment for 48 hours
# Description: as §1
# Human embryonic kidney cell HEK293T (American Type Culture Collection, Manassas, Va.) was cultured in Dulbecco's modified Eagle's medium (DMEM) (Gibco) with 10% FBS (Atlanta Biologicals), 1× GlutaMax (Gibco, Thermo Fisher Scientific, Inc., Waltham, Mass.), and 1× penicillin/streptomycin (Pen/Strep; Gibco, Thermo Fisher Scientific, Inc., Waltham, Mass.). Cells (100,000/ml) were plated in 24-well or 10-cm cell culture plate the day before transfection. For each well of 24-well plate transfection, 500 ng of dCas9-PYL-HA, 420 ng of FLAG-ABI-P300, and a total amount of 200-ng mix of gRNAs, with a 50-ng per each gRNA, were mixed with 50×(v/w) Opti-MEM (Gibco, Thermo Fisher Scientific, Inc., Waltham, Mass.), then incubate with the same volume of 3 μg PEI-Opti-MEM solution for 20 minutes at room temperature. Then, 100 μL of PEI-combined plasmids were added to every single well of 24-well plate and cultured for 24 hours before experiments were performed. For a 10 cm plate, 1 mL of PEI-combined plasmids were needed. After six hours transfection, cells were washed and incubated for another 1-72 hours before experiments were performed. […]
# [4] = tested on: IL1RN mRNA in HEK293T cells; experiment: qPCR of IL1RN mRNA levels (dCas9-PYL-HA, FLAG-ABI-P300, sgRNAs)
# Description: To study how IL1RN expression levels change, total RNAs from the cell lysates generated in the above experiment were purified and then subjected to qPCR analysis to quantify mRNA levels.
# Human embryonic kidney cell HEK293T (American Type Culture Collection, Manassas, Va.) was cultured in Dulbecco's modified Eagle's medium (DMEM) (Gibco) with 10% FBS (Atlanta Biologicals), 1× GlutaMax (Gibco, Thermo Fisher Scientific, Inc., Waltham, Mass.), and 1× penicillin/streptomycin (Pen/Strep; Gibco, Thermo Fisher Scientific, Inc., Waltham, Mass.). Cells (100,000/ml) were plated in 24-well or 10-cm cell culture plate the day before transfection. For each well of 24-well plate transfection, 500 ng of dCas9-PYL-HA, 420 ng of FLAG-ABI-P300, and a total amount of 200-ng mix of gRNAs, with a 50-ng per each gRNA, were mixed with 50×(v/w) Opti-MEM (Gibco, Thermo Fisher Scientific, Inc., Waltham, Mass.), then incubate with the same volume of 3 μg PEI-Opti-MEM solution for 20 minutes at room temperature. Then, 100 μL of PEI-combined plasmids were added to every single well of 24-well plate and cultured for 24 hours before experiments were performed. For a 10 cm plate, 1 mL of PEI-combined plasmids were needed. After six hours transfection, cells were washed and incubated for another 1-72 hours before experiments were performed.
# Total RNA was extracted using the EZNA Total RNA Kit I (Omega Bio-tek, Inc., Norcross, Ga.). qPCR reactions were performed on cDNA prepared from 1,000 ng of total cellular RNA using the High-Capacity cDNA Reverse Transcription Kit (Applied Biosystems Co., Thermo Fisher Scientific, Inc., Foster City, Calif.). TaqMan qPCR probes (Thermo Fisher Scientific, Inc., Waltham, Mass. IL1RN, Hs00893626; GRM2, Hs00968358; HBA, Hs00361191; MYOD1 Hs02330075; GAPDH, Hs99999905) and Fast Advanced Master Mix (Life Technologies Co., Co., Thermo Fisher Scientific, Inc., Carlsbad, Calif.) were used in multiplexed reactions and 384-well format in a 7900HT Fast Real-Time PCR System (Applied Biosystems Co., Thermo Fisher Scientific, Inc., Foster City, Calif.). All measurements were performed at least in triplicate. Data were analyzed using the SDS software, version 2.4 (Applied Biosystems Co., Thermo Fisher Scientific, Inc., Foster City, Calif.), by the ΔΔCt method: the Ct values of target gene were normalized to Ct values of GAPDH, the folds of target gene expression changes were normalized to experimental controls. Analyzed data are reported as the mean±s.e.m. for biological replicates. In ChIP assays, the Ct values of antibodies pulled down segments were normalized to the Ct values of 10% input.
smiles,measurement,setting,value
"CC1=CC(=O)CC(C)(C)[C@@]1(O)/C=C/C(C)=C\C(=O)O [ABA, abscisic acid]",level of MYOD1 mRNA,[1],increases correspondingly
same,level of HBA mRNA,[2],increases correspondingly
same,enrichment of FLAG-ABI-P300 at the HBA locus,[3],causes the enrichment
same,enrichment of H3K27Ac at the HBA locus,[3],causes the enrichment
same,IL1RN mRNA levels after washing,"[4]; ABA for 12, 24 or 48 hours, then washed",well correlated with the changes in H3K27Ac levels
same,IL1RN mRNA level with P300 mutant (D1399Y) lacking acetyltransferase activity,"[4]; FLAG-ABI-P300 D1399Y, 100 μM ABA for 24 hours",did not increase
same,IL1RN mRNA level,"[4]; cells transfected with ABI-P300, dCas9-PYL and IL1RN sgRNAs, treated with ABA (100 μM, 24 hours)",IL1RN mRNA level increases
same,"IL1RN mRNA when sgRNAs designed for GRM2, HBA or MYOD1 were used","[4]; sgRNAs for GRM2, HBA or MYOD1 in place of IL1RN, 24-hour ABA treatment",no increase in IL1RN mRNA was observed
same,time at which the IL1RN mRNA level increases,[4]; time course after ABA addition,four hours after ABA addition
same,time until which IL1RN mRNA continues to increase rapidly,[4]; time course after ABA addition,about 24 hours
